Where a name gives a salt, the structure may show the parent alone.
Each compound was assayed against T1, human NaPi-IIb (Homo sapiens, UniProt O95436) (assay: Inhibitory effect on 33PO4 uptake into human NaPi-IIb-expressing CHO cells). Settings: read-out: IC50.
T1 construct: expressed in transfected cells
T1 sequence (O95436 1-690): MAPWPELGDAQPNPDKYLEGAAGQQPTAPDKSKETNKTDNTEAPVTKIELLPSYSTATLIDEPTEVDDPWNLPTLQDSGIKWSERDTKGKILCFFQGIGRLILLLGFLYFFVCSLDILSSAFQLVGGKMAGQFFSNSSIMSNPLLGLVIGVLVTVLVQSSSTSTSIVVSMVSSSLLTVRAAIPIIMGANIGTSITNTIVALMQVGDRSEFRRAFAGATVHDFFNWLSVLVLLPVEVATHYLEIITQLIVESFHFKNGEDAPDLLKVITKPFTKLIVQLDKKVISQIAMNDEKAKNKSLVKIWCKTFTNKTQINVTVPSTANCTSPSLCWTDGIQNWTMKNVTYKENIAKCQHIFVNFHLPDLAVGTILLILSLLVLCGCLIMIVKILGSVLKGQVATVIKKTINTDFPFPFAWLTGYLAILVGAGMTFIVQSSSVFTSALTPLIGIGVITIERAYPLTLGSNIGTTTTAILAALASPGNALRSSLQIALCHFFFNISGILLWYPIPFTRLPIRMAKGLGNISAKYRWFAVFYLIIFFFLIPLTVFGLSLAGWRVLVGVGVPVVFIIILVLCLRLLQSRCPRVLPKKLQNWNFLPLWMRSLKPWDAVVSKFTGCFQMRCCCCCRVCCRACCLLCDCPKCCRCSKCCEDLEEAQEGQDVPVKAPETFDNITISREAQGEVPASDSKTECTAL
Assay type: cell-based
Protocol: Test Example 2: Inhibitory Effect on PO4 Uptake into Human NaPi-IIb-Expressing Cell CHO cells were transfected with human NaPi-IIb expression plasmids, and a stably human NaPi-IIb-expressing cell line was obtained using G418. The human NaPi-IIb-expressing cells were inoculated to a 96-well plate and incubated overnight in a CO2 incubator. […] After a given time, a 1/20 volume of buffer A containing ^33PO4 was added thereto and reacted at room temperature. After washing with ice-cold buffer A, a liquid scintillator was added to each reaction mixture, and the amount of ^33PO4 uptake was measured using TopCount.

| Compound | IC50 |
| --- | --- |
| COc1cccc(-c2cc(C(F)(F)F)ccc2NC(=O)C2=C(O)[C@@]3(C)CCCN3N(Cc3ccc(C#CCCCO)c(F)c3F)C2=O)c1OC [Example 138] | 11.9 µM |
| COc1cccc(-c2cc(C(F)(F)F)ccc2NC(=O)C2=C(O)[C@@]3(C)CCCN3N(Cc3ccc(C#CCOCCOCCO)c(F)c3F)C2=O)c1OC [Example 139] | 17 µM |
| COc1cccc(-c2cc(C(F)(F)F)ccc2NC(=O)C2=C(O)[C@@]3(C)CCCN3N(Cc3ccc(CCCOCCOCCOCCO)c(F)c3F)C2=O)c1OC [Example 142] | 17.6 µM |
| C[C@]12CCCN1N(Cc1c(F)cc(C#CCCOC[C@H](O)CO)cc1F)C(=O)C(C(=O)Nc1ccc(C(F)(F)F)cc1-c1ccc(C(F)(F)F)nc1)=C2O [Example 145] | 7.1 µM |
| C[C@]12CCCN1N(Cc1c(Cl)cc(OCCN3CCOCC3)cc1Cl)C(=O)C(C(=O)Nc1cnc(C(F)(F)F)nc1-c1ccc(C(F)(F)F)nc1)=C2O [Example 146, (4aR)-1-[[2,6-Dichloro-4-(2-morpholin-4-ylethoxy)phenyl]methyl]-4-hydroxy-4a-methyl-2-oxo-N-[2-(trifluoromethyl)-4-[6-(trifluoromethyl)pyridin-3-yl]pyrimidin-5-yl]-6,7-dihydro-5H-pyrrolo[1,2-b]pyridazine-3-carboxamide hydrochloride] | 10.2 µM |
| C[C@]12CCCN1N(Cc1c(Cl)cc(OCCN3CCOCC3)cc1Cl)C(=O)C(C(=O)Nc1ccc(C(F)(F)F)nc1-c1ccc(C(F)(F)F)nc1)=C2O [Example 148, (4aR)-1-[[2,6-Dichloro-4-(2-morpholin-4-ylethoxy)phenyl]methyl]-4-hydroxy-4a-methyl-2-oxo-N-[6-(trifluoromethyl)-2-[6-(trifluoromethyl)pyridin-3-yl]pyridin-3-yl]-6,7-dihydro-5H-pyrrolo[1,2-b]pyridazine-3-carboxamide hydrochloride] | 8.5 µM |
| C[C@]12CCCN1N(Cc1ccc(OCCN3CCOCC3)c(Cl)c1)C(=O)C(C(=O)Nc1ccc(C(F)(F)F)cc1-c1ccc(C(F)(F)F)nc1)=C2O [Example 149, (4aR)-1-[[3-Chloro-4-(2-morpholin-4-ylethoxy)phenyl]methyl]-4-hydroxy-4a-methyl-2-oxo-N-[4-(trifluoromethyl)-2-[6-(trifluoromethyl)pyridin-3-yl]phenyl]-6,7-dihydro-5H-pyrrolo[1,2-b]pyridazine-3-carboxamide] | 19.7 µM |
| C[C@]12CCCN1N(Cc1c(F)cc(OCCCCCCOC[C@@H](O)CO)cc1F)C(=O)C(C(=O)Nc1ccc(C(F)(F)F)cc1-c1ccc(C(F)(F)F)nc1)=C2O [Example 154] | 2.5 µM |
| C[C@]12CCCN1N(Cc1c(F)cc(OCCCCCCOC[C@H](O)CO)cc1F)C(=O)C(C(=O)Nc1ccc(C(F)(F)F)cc1-c1ccc(C(F)(F)F)nc1)=C2O [Example 155] | 2.3 µM |
| COc1cccc(-c2cc(C(F)(F)F)ccc2NC(=O)C2=C(O)[C@@]3(C)CCCN3N(Cc3ccc(OC4CCOCC4)c(F)c3F)C2=O)c1OC [Example 158] | 12.8 µM |
| C[C@]12CCCN1N(Cc1ccc(OCCN3CCOCC3)c(F)c1F)C(=O)C(C(=O)Nc1ccc(C(F)(F)F)cc1-c1ccc(C(F)(F)F)nc1)=C2O [Example 161] | 11.5 µM |
| C[C@]12CCCN1N(Cc1ccc(OCCCCCO)c(F)c1F)C(=O)C(C(=O)Nc1ccc(C(F)(F)F)cc1-c1cc(C(F)(F)F)ncn1)=C2O [Example 162] | 15.1 µM |
| C[C@]12CCCN1N(Cc1ccc(SCCN3CCOCC3)c(F)c1F)C(=O)C(C(=O)Nc1ccc(C(F)(F)F)cc1-c1ccc(C(F)(F)F)nc1)=C2O [Example 163, (4aR)-1-[[2,3-Difluoro-4-(2-morpholin-4-ylethylsulfanyl)phenyl]methyl]-4-hydroxy-4a-methyl-2-oxo-N-[4-(trifluoromethyl)-2-[6-(trifluoromethyl)pyridin-3-yl]phenyl]-6,7-dihydro-5H-pyrrolo[1,2-b]pyridazine-3-carboxamide hydrochloride] | 6.8 µM |
| COC(=O)c1cc(F)c(CN2C(=O)C(C(=O)Nc3ccc(C(F)(F)F)cc3-c3ccc(C(F)(F)F)nc3)=C(O)[C@@]3(C)CCCN23)c(F)c1 [Example 165, Methyl 4-[[(4aR)-4-Hydroxy-4a-methyl-2-oxo-3-[[4-(trifluoromethyl)-2-[6-(trifluoromethyl)pyridin-3-yl]phenyl]carbamoyl]-6,7-dihydro-5H-pyrrolo[1,2-b]pyridazin-1-yl]methyl]-3,5-difluorobenzoate] | 1.8 µM |
| C[C@]12CCCN1N(Cc1ccccc1Cl)C(=O)C(C(=O)Nc1ccc(C(F)(F)F)cc1-c1ccc(C(F)(F)F)nc1)=C2O [Example 168] | 2.6 µM |
| C[C@]12CCCN1N(Cc1ccc(F)c(F)c1)C(=O)C(C(=O)Nc1ccc(C(F)(F)F)cc1-c1ccc(C(F)(F)F)nc1)=C2O [Example 170] | 2.2 µM |
| C[C@]12CCCN1N(Cc1cc(F)cc(F)c1)C(=O)C(C(=O)Nc1ccc(C(F)(F)F)cc1-c1ccc(C(F)(F)F)nc1)=C2O [Example 171] | 2.2 µM |
| C[C@]12CCCN1N(Cc1cc(F)ccc1F)C(=O)C(C(=O)Nc1ccc(C(F)(F)F)cc1-c1ccc(C(F)(F)F)nc1)=C2O [Example 172] | 2.4 µM |
| COc1ccc(OC)c(CN2C(=O)C(C(=O)Nc3ccc(C(F)(F)F)cc3-c3ccc(C(F)(F)F)nc3)=C(O)[C@@]3(C)CCCN23)c1 [Example 176] | 4 µM |
| C[C@]12CCCN1N(Cc1cccc(OC(F)F)c1)C(=O)C(C(=O)Nc1ccc(C(F)(F)F)cc1-c1cc(C(F)(F)F)ncn1)=C2O [Example 177] | 11.1 µM |

More lines, in order of falling IC50, values ahead:

| IC50 | Compound |
| --- | --- |
| 18.9 µM | C[C@]12CCCN1N(Cc1cccc(C#N)c1)C(=O)C(C(=O)Nc1ccc(C(F)(F)F)cc1-c1cc(C(F)(F)F)ncn1)=C2O [Example 179] |
| 11.4 µM | COc1cccc(-c2cc(C(F)(F)F)ccc2NC(=O)C2=C(O)[C@@]3(C)CCCN3N(Cc3ccc(OC[C@H]4CCCO4)c(F)c3F)C2=O)c1OC [Example 159] |
| 10.5 µM | C[C@]12CCCN1N(Cc1ccc(Br)cc1F)C(=O)C(C(=O)Nc1cc(F)c(Br)c(F)c1)=C2O [Example 166, (4aR)—N-(4-Bromo-3,5-difluorophenyl)-1-[(4-bromo-2-fluorophenyl)methyl]-4-hydroxy-4a-methyl-2-oxo-6,7-dihydro-5H-pyrrolo[1,2-b]pyridazine-3-carboxamide] |
| 9 µM | COC(=O)COc1ccc(CN2C(=O)C(C(=O)Nc3ccc(C(F)(F)F)cc3-c3ccc(C(F)(F)F)nc3)=C(O)[C@@]3(C)CCCN23)c(F)c1F [Example 150] |
| 8.4 µM | COc1cccc(-c2cc(C(F)(F)F)ccc2NC(=O)C2=C(O)[C@@]3(C)CCCN3N(Cc3ccc(OCc4ccncc4)c(F)c3F)C2=O)c1OC [Example 151, (4aR)-1-[[2,3-Difluoro-4-(pyridin-4-ylmethoxy)phenyl]methyl]-N-[2-(2,3-dimethoxyphenyl)-4-(trifluoromethyl)phenyl]-4-hydroxy-4a-methyl-2-oxo-6,7-dihydro-5H-pyrrolo[1,2-b]pyridazine-3-carboxamide] |
| 8.2 µM | C[C@]12CCCN1N(Cc1ccccc1C#N)C(=O)C(C(=O)Nc1ccc(C(F)(F)F)cc1-c1cc(C(F)(F)F)ncn1)=C2O [Example 178] |
| 7.8 µM | C[C@]12CCCN1N(Cc1ccc(CCCOCCCO)c(F)c1F)C(=O)C(C(=O)Nc1ccc(C(F)(F)F)cc1-c1ccc(C(F)(F)F)nc1)=C2O [Example 141] |
| 7.3 µM | C[C@]12CCCN1N(Cc1ccc(OC[C@H]3CCCO3)c(F)c1F)C(=O)C(C(=O)Nc1ccc(C(F)(F)F)cc1-c1ccc(C(F)(F)F)nc1)=C2O [Example 160] |
| 6.7 µM | C[C@]12CCCN1N(Cc1c(F)cc(C#CCCCCOC[C@H](O)CO)cc1F)C(=O)C(C(=O)Nc1ccc(C(F)(F)F)cc1-c1ccc(C(F)(F)F)nc1)=C2O [Example 143] |
| 6.2 µM | C[C@]12CCCN1N(Cc1c(F)cc(OCCCCCOC[C@@H](O)CO)cc1F)C(=O)C(C(=O)Nc1ccc(C(F)(F)F)cc1-c1ccc(C(F)(F)F)nc1)=C2O [Example 153] |
| 5.7 µM | C[C@]12CCCN1N(Cc1ccccc1Cl)C(=O)C(C(=O)Nc1ccc(C(F)(F)F)cc1-c1cc(C(F)(F)F)ncn1)=C2O [Example 180] |
| 4.3 µM | C[C@]12CCCN1N(Cc1cccc(OC(F)F)c1)C(=O)C(C(=O)Nc1ccc(C(F)(F)F)cc1-c1ccc(C(F)(F)F)nc1)=C2O [Example 167] |
| 3.4 µM | COc1cccc(CN2C(=O)C(C(=O)Nc3ccc(C(F)(F)F)cc3-c3ccc(C(F)(F)F)nc3)=C(O)[C@@]3(C)CCCN23)c1OC [Example 175] |
| 2.6 µM | C[C@]12CCCN1N(Cc1cccc(Cl)c1)C(=O)C(C(=O)Nc1ccc(C(F)(F)F)cc1-c1ccc(C(F)(F)F)nc1)=C2O [Example 169] |
| 2.2 µM | C[C@]12CCCN1N(Cc1cccc(F)c1Cl)C(=O)C(C(=O)Nc1cc(F)c(Br)c(F)c1)=C2O [Example 174] |
| 1.9 µM | C[C@]12CCCN1N(Cc1ccc(F)cc1F)C(=O)C(C(=O)Nc1ccc(C(F)(F)F)cc1-c1ccc(C(F)(F)F)nc1)=C2O [Example 173] |
